Measured values taken from publication PMC7466001 (Molecules, 2020).
“And” between values parts separate entries of the source, which are not always exact repeats. Equal values may be shown once. Read-outs that look alike come from different tables or passages of the source.

What was measured:
[1] = target: T1, rat neurokinin 1 receptor (Rattus norvegicus, UniProt P14600); assay: Competitive radioligand binding assay using rat brain homogenates, [3H]-[Sar9,Met(O2)11]-Substance P; settings: for Ratio to APT: IC50 ratio to aprepitant, rat NK1R
T1 construct: from tissue; host or cells: rat brain (membrane preparation / homogenate)
T1 sequence (P14600 whole entry): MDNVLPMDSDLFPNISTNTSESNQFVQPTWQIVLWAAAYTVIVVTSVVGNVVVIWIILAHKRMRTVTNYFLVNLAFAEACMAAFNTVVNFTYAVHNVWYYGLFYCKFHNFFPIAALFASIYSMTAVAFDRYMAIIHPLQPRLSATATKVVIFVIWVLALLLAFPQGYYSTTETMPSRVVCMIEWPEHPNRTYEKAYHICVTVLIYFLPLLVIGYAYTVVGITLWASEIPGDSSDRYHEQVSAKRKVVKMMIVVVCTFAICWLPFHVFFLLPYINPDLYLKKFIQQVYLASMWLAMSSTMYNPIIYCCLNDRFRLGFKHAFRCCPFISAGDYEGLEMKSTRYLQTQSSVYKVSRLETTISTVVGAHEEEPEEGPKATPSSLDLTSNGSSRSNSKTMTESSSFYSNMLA
Source text: An important consideration in the search of conjugate vectors for radionuclides is whether the functionalization of a high affinity ligand would not reduce the binding strength for a desired receptor. For the preliminary addressing of this issue in the case of our conjugates, we measured the affinity of compounds 5A–E (uncomplexed precursors) for the rat neurokinin-1 receptor. The human (hNK1R) and the rat (rNK1R) neurokinin 1 receptors differ in their sequences and pharmacology.
In brief, the membrane preparations obtained from rat brains were incubated at 25 °C for 60 min in the presence of a selective radioligand [^3H]-[Sar^9,Met(O2)^11]-Substance P obtained from PerkinElmer, (Waltham, MA, USA) and the increasing concentrations of the tested compounds (each concentration in duplicate). Non-specific binding was measured in the presence of 10 μM cold Substance P. The assay buffer was composed of 50 mM Tris-HCl (pH 7.4), 5 mM MnCl2, bovine serum albumin (BSA) (0.1 mg/mL), bacitracin (100 μg/mL), bestatin (30 μM), phenylmethylsulfonyl fluoride (30 μg/mL), and captopril (10 μM). The reaction total volume was 1 mL. With the incubation having been terminated, a rapid filtration through GF/B Whatman glass fiber strips was done with a M-24 Cell Harvester (Brandel, Gaithersburg, MD, USA). The filters were pre-soaked overnight with 0.5% polyethyleneimine so that the extent of non-specific binding could be minimized. After the filtration, the strips were dried, the filter discs were placed separately in 24-well plates, and a Betaplate Scint scintillation solution (PerkinElmer, Waltham, MA, USA) was added to each well. Radioactivity was measured with a MicroBeta LS scintillation counter, Trilux (PerkinElmer, Waltham, MA, USA). The data came from three independent experiments done in duplicate. The results are presented as IC50 with SEM.

[2] = Lipophilicity study, distribution in n-octanol/PBS (pH 7.40); type: physicochemical; settings: n-octanol/PBS buffer pH 7.4
Source text: In the course of the lipophilicity study, each isolated DOTA radioconjugate (determined as fully stable in HS) was examined for distribution in the system of n-octanol and a phosphate-buffered saline (PBS) buffer (pH = 7.4) to estimate the lipophilicity of the radiocomplex. The lipophilicity of each radioconjugate (logD), defined as the logarithm of the distribution coefficient (D) is based on the ratio of the radioactivity of the organic phase to the radioactivity of the aqueous phase. The stability of the studied radioconjugate was verified simultaneously during the experiment through the HPLC analysis of the aqueous phase. LogD values of [^68Ga]Ga-5A–[^68Ga]Ga-5E and [^177Lu]Lu-5A–[^177Lu]Lu-5E are listed below in Table 3.
The lipophilicity values of the radioconjugates (logD), expressed as the logarithm of its D in the n-octanol/PBS (pH 7.40) system, mimicking the physiological conditions (Product Properties Test Guidelines of the Office of Prevention, Pesticides and Toxic Substances 830.7550, 1996), were determined right after the SPE method purification and ethanol evaporation processes. A solution of isolated selected radioconjugate in 500 µL of a 0.1 M PBS buffer at pH 7.40 and 500 µL of n-octanol was vigorously stirred and centrifuged (13,500 rpm for 5 min) to separate the immiscible phases. The radioactivities of the aqueous and organic layers were determined using a well-type NaI(Tl) detector. The distribution coefficient was calculated as the ratio of the radioactivity of the radioconjugate in the organic phase to that in the aqueous phase. Each measurement was performed in triplicate and averaged. Simultaneously, the aqueous phases were analyzed by HPLC to check whether the studied radioconjugate remained intact during the experiment.

[3] = target: human neurokinin 1 receptor; parameters: method as in PMID 9804700; settings: human receptor binding; cited from earlier work
[4] = parameters: method as in PMID 15488686; settings: aprepitant; cited from earlier work
[5] = tested on: rNK1R; parameters: method as in PMID 19426690; settings: cells expressing rNK1R; cited from earlier work
[6] = tested on: hNK1R; parameters: method as in PMID 19426690; settings: cells expressing hNK1R; cited from earlier work
[7] = type: physicochemical
Method: All APT conjugates with DOTA, Bn-DOTA, and Bn-DOTAGA were radiolabeled with ^68Ga and ^177Lu, while APT conjugates with DTPA were only radiolabeled with ^68Ga. Synthesized radioconjugates were purified using the solid phase extraction (SPE) method before HPLC identification (Figure 2 and Figure 3) and further analyses.
Moreover, in the radiochromatogram of [^177Lu]Lu-DOTA-Bn-Et-APT ([^177Lu]Lu-6A) one can see a small additional signal (about 19.3 min) that is recognized as an early by-product of an interaction with solvent (EtOH) from the purification process. To verify the identity of all synthesized [^68Ga]Ga-radioconjugates in a non-carrier added scale, the non-radioactive stable gallium reference compounds (Ga-5A–Ga-9A and Ga-5A–Ga-5E) were synthesized and characterized by mass spectrometry. […]
The ^68Ga radiolabeling of the DOTA, Bn-DOTA, and Bn-DOTAGA conjugates of APT was performed according to the following procedure: 145 µL of a concentrated solution of [^68Ga]GaCl3 in 0.1 M HCl from the ^68Ge/^68Ga generator (4.9 ÷ 7.2 MBq) was added into the solution of 25 nmol of the selected conjugate in 200 µL of a 0.2 M acetate buffer (pH = 4.5) and heated for 5–10 min at 95 °C. […] The effectiveness of the purification was monitored by HPLC. […]

[8] = uncomplexed precursors, rat brain homogenates, three independent experiments in duplicate, read-out: IC50 ± SEM

In the case of APT-Bu-DOTA [5C], the “Ratio to APT” value [1] is reported as 14.3, the IC50 [1, 8] is reported as 1800 ± 700 nM and the logD ([2]; 68Ga-radiolabeled conjugate) is reported as 0.290 ± 0.018. It also gave a logD ([2]; 177Lu-radiolabeled conjugate) of 0.777 ± 0.021.

For APT-Et-DOTA [5A], the “Ratio to APT” value [1] was 48.2, the IC50 [1, 8] was 6200 ± 2600 nM and the logD ([2]; 68Ga-radiolabeled conjugate) was 0.141 ± 0.019. For the same compound, the logD ([2]; 177Lu-radiolabeled conjugate) was 0.708 ± 0.021.

In the case of `C[C@@H](O[C@H]1OCCN(Cc2n[nH]c(=O)[nH]2)[C@H]1c1ccc(F)cc1)c1cc(C(F)(F)F)cc(C(F)(F)F)c1` [Aprepitant, aprepitant], the IC50 [3] is listed as 0.09 nM, the logD [4] is listed as 4.8 and the IC50 ([1]; IC50, rat brain homogenates) is listed as 128 nM. For the same compound, the “Ratio to APT” value [1] was 1.0, the IC50 ([1]; IC50 ± SEM, uncomplexed precursors, rat brain homogenates, three independent experiments in duplicate) was 130 ± 60 nM and the pKB [5] was 7.3. For the same compound, the pKB [6] was 8.7.

With [^68Ga]Ga-DTPA-(Et-APT)2 [[^68Ga]Ga-9A] the “stability of the radioconjugate after radiosynthesis” value [7] was “immediately unstable”.

In the case of APT-Pr-DOTA [5B], the “Ratio to APT” value [1] is reported as 5.3, the IC50 [1, 8] is reported as 690 ± 70 nM and the logD ([2]; 68Ga-radiolabeled conjugate) is reported as 0.058 ± 0.016. The logD ([2]; 177Lu-radiolabeled conjugate) was 0.654 ± 0.022.

For APT-Ac-HN-NH-DOTA [5D], the “Ratio to APT” value [1] was 19.1, the IC50 [1, 8] was ~2500 nM and 2500 nM and the logD ([2]; 68Ga-radiolabeled conjugate) was −1.012 ± 0.017. For the same compound, the logD ([2]; 177Lu-radiolabeled conjugate) was −0.401 ± 0.015.

With APT-Ac-Et-DOTA [5E] the “Ratio to APT” value [1] was 19.7, the IC50 [1, 8] was ~2500 nM and 2500 nM and the logD ([2]; 68Ga-radiolabeled conjugate) was −0.231 ± 0.015. The logD ([2]; 177Lu-radiolabeled conjugate) was 0.500 ± 0.017.
